# Test results taken from patent US6787569B1, “Therapeutic guanidines” (Cambridge NeuroScience, Inc., priority 1994, dated 2004).
# Where a name gives a salt, the structure may show the parent alone.
# Assays:
# [1] = tested on: depolarization-induced 3H-glutamate release from brain nerve terminals; assay: Inhibition of 3H-glutamate release, high [K+] depolarization, rapid superfusion of synaptosomes; assay type: biochemical; conditions: rat brain synaptosomes; for % Inhibition of ^3H-Glu Rel @ 0.3 μM: 0.3 μM compound; for % Inhibition of ^3H-Glu Rel @ 1 μM: 1 μM compound; for % Inhibition of ^3H-Glu Rel @ 0.1 μM: 0.1 μM compound
# [2] = tested on: audiogenic seizures in DBA/2 mice; assay: In vivo anticonvulsant activity in the DBA/2 mouse model (audiogenic seizures); conditions: 30 minutes prior to auditory stimulus
# Method: Compounds were tested for their effectiveness in preventing seizures in DBA/2 mice which have a unique sensitivity to auditory stimulation. Exposure to loud high-frequency sounds can trigger seizure activity in these animals. This sensitivity develops from postnatal day 12 and peaks around day 21 and slowly diminishes as the animals mature. The unusual response to auditory stimulation in this strain of mouse is believed to be due to a combination of early myelination (causing an unusually low excitatory threshold) and delayed development of inhibitory mechanisms. Glutamate, the predominant excitatory neurotransmitter, has been implicated in this response. Blockade of glutamate receptors of the NMDA and AMPA subtypes, prevents audiogenic seizures in these mice. Compounds that block the release of glutamate should similarly act to prevent seizure activity, and may be therapeutic in other neurologic disorders such as stroke, which also involves glutamate-mediated damage.
# Mice were injected intraperitoneally with the compound specified in Table V below or with vehicle control, 30 minutes prior to being placed in a bell jar and turning on the auditory stimulus (12 KHz sine wave at 110-120 db). Administered doses are specified in Table V as milligram of compound per kilogram bodyweight of mouse. The auditory stimulus was left on for 60 seconds and mice reactions were timed and recorded.
# Percentage inhibition was determined with reference to vehicle controls.
Compound,% Inhibition of ^3H-Glu Rel @ 0.3 μM [1],% Inhibition of ^3H-Glu Rel @ 1 μM [1],also measured
"CCCCc1ccc(NC(=N)Nc2ccc(OCc3ccccc3)cc2)cc1.Cl [Example 104, N-(4-Benzyloxyphenyl)-N′-(4-butylphenyl)guanidine.HCl]",76%,,Audiogenic Response % Inhib. ([2]; 20 mg/kg intraperitoneally): 40%; Audiogenic Response % Inhib. ([2]; 40 mg/kg intraperitoneally): 90%
"CCCCc1ccc(NC(=N)Nc2ccc(CCCC)cc2)cc1.CS(=O)(=O)O [Example 37, N,N′-Bis(4-n-butylphenyl)guanidine.mesylate]",57%,100%,Audiogenic Response % Inhib. ([2]; 25 mg/kg intraperitoneally): 82%; Audiogenic Response % Inhib. ([2]; 40 mg/kg intraperitoneally): 92%
N=C(Nc1ccc(OCc2ccccc2)cc1)Nc1ccc(Oc2ccccc2)cc1 [N-(4-benzyloxyphenyl)-N′-(4-phenoxyphenyl)guanidine],,,Audiogenic Response % Inhib. ([2]; 20 mg/kg intraperitoneally): 16%; Audiogenic Response % Inhib. ([2]; 40 mg/kg intraperitoneally): 93%
"CC(C)(C)c1ccc(NC(=N)Nc2cccc(COCc3ccccc3)c2)cc1.CS(=O)(=O)O [Example 106, N-3-(Benzyloxymethyl)phenyl-N′-(4-tert-butylphenyl)guanidine.mesylate]",48%,,Audiogenic Response % Inhib. ([2]; 40 mg/kg intraperitoneally): 93%
N-(5-Acenaphthyl)-N′-(indolinyl)guanidine.mesylate [Example 29],,,Audiogenic Response % Inhib. ([2]; 20 mg/kg intraperitoneally): 42%; Audiogenic Response % Inhib. ([2]; 40 mg/kg intraperitoneally): 81%
"CC(C)(C)c1ccc(CN(C(=N)N)c2cccc(C(C)(C)C)c2)cc1.Cl [Example 63, N-(3-tert-Butylphenyl)-N-(4-tert-butylbenzyl)guanidine.HCl]",,40%,
"CCCCc1ccc(NC(=N)N(C)c2ccc(CCCC)cc2)cc1.Cl [Example 101, N,N′-Bis-(4-butylphenyl)-N-methylguanidine.HCl]",35%,,
"CCCCCN(C(=N)Nc1ccc(C(C)CC)cc1)c1ccc(C(C)CC)cc1.Cl (stereo not shown) [Example 46, N,N′-(sec-Butylphenyl)-N′-(n-pentyl)guanidine.HCl]",65%,100%,
"N=C(N)N(Cc1ccc(OC(F)(F)F)cc1)c1ccc2c3c(cccc13)CC2 [Example 59, N-(5-Acenaphthyl)-N-(4-trifluaromethoxybenzyl)guanidine.HCl]",,44%,
"Br.CN(C(=N)Nc1ccc(C(C)(C)C)cc1)c1ccc(C(C)(C)C)cc1 [Example 35, N,N′-Bis(4-tert-butylphenyl)-N-methylguanidine.HBr]",,61%,
"CS(=O)(=O)O.N=C(Nc1ccc(N=Nc2ccccc2)cc1)Nc1cccc(OCc2ccccc2)c1 [Example 140, N-(3-Benzyloxyphenyl)-N′-(4-phenylazophenyl)guanidine.mesylate]",44%,,
"CC(Cc1ccc(Cl)cc1)NC(=N)Nc1ccc2c3c(cccc13)CC2.Cl (stereo not shown) [Example 40, N-(5-Acenaphthyl)-N′-(1-methyl-2-(4-chlorophenyl)ethyl)guanidine.HCl]",46%,64%,
"CC(C)(C)c1ccc(CN(C(=N)N)c2cccc3ccccc23)cc1.Cl [Example 47, N-(1-Naphthyl)-N-4(tert-butylbenzyl)guanidine.HCl]",,40%,
"CCCCCCc1ccc(NC(=N)Nc2ccc(CCCCCC)cc2)cc1.CS(=O)(=O)O [Example 96, N,N′-Bis-(4-Hexylphenyl)guanidine.mesylate]",54%,,% Inhibition of ^3H-Glu Rel @ 0.1 μM [1]: 54%
"CN(C(=N)Nc1ccc(OCc2ccccc2)cc1)c1ccc(C(C)(C)C)cc1.CS(=O)(=O)O [Example 98, N-(4-Benzyloxyphenyl)-N′-methyl-N′-(4-tert-butylphenyl)guanidine.mesylate]",28%,,
"CN(C(=N)N(C)c1ccc(C(C)(C)C)cc1)c1ccc(C(C)(C)C)cc1.Cl [Example 102, N,N′-Bis-(4-tert-butylphenyl)-N,N′-dimethylguanidine.HCl]",73%,,% Inhibition of ^3H-Glu Rel @ 0.1 μM [1]: 18%
"CCC(C)c1ccc(N(Cc2ccc(C(C)(C)C)cc2)C(=N)Nc2ccc(Cl)c(Cl)c2)cc1.Cl (stereo not shown) [Example 89, N-(4-sec-Butylphenyl)-N-(4-tert-butylbenzyl)-N′-(3,4-dichlorophenyl)guanidine.HCl]",21%,,
"CCC(C)c1ccc(N(Cc2ccc(C(C)(C)C)cc2)C(=N)Nc2ccccc2)cc1.Cl (stereo not shown) [Example 85, N-(4-sec-Butylphenyl)-N-(4-tert-butylbenzyl)-N′-(phenyl)guanidine.HCl]",55%,100%,
N-(5-Acenaphthyl)-N′-((4-tert-butylphenyl)-(4-sec-butylphenyl)-N′-methylguanidine.HCl [Example 60],,,% Inhibition of ^3H-Glu Rel @ 3 μM ([1]; 3 μM compound): 32%
"CC(C)(C)c1ccc(COc2cccc(NC(=N)Nc3ccc(C(C)(C)C)cc3)c2)cc1.CS(=O)(=O)O [Example 99, N-(3-(4-tert-Butylbenzyloxy)phenyl)-N′-(4-tert-butylphenyl)guanidine.mesylate]",20%,,
"Cl.N=C(N)N(Cc1cccc(OCc2ccccc2)c1)c1ccc2c3c(cccc13)CC2 [Example 68, N-(5-Acenaphthyl)-N-(3-benzyloxybenzyl)guanidine.HCl]",,76%,
"Br.CCCCOc1ccc(NC(=N)Nc2ccc(OCCCC)cc2)cc1 [Example 137, N,N′-Bis(4-butoxyphenyl)guanidine.HBr]",,,Audiogenic Response % Inhib. ([2]; 20 mg/kg intraperitoneally): 60%; Audiogenic Response % Inhib. ([2]; 40 mg/kg intraperitoneally): 82%
N-(4-sec-Butylphenyl)-N-(4-tert-butylbenzyl)-N′-piperidinylguanidine.HCl [Example 74],21%,100%,
"CCC(C)c1ccc(N(Cc2ccc(C(C)(C)C)cc2)C(=N)N(C)c2ccccc2)cc1.Cl (stereo not shown) [Example 88, N-(4-sec-Butylphenyl)-N-(4-tert-butylbenzyl)-N′-(phenyl)-N′-methylguanidine.HCl]",77%,,
"Br.N=C(Nc1ccc2c(c1)CCCC2)Nc1ccc2c(c1)CCCC2 [Example 111, N,N′-Bis-(6-tetralinyl)guanidine.HBr]",61%,,
"Cl.N=C(N)N(Cc1ccc(I)cc1)c1ccc2c3c(cccc13)CC2 [Example 58, N-(5-Acenaphthyl)-N-(4-iodobenzyl)guanidine.HCl]",,43%,
"CCC(C)c1ccc(N(Cc2ccc(C(C)(C)C)cc2)C(=N)Nc2ccc(OCc3ccccc3)cc2)cc1.CS(=O)(=O)O (stereo not shown) [Example 91, N-(4-sec-Butylphenyl)-N-(4-tert-butylbenzyl)-N′-(4-benzyloxyphenyl)guanidine.mesylate]",49%,,
"CCOc1ccc(Cc2cccc(CCNC(=N)Nc3ccc(C(C)(C)C)cc3)c2)cc1.CS(=O)(=O)O [Example 97, N-(3-(1-(4′-Ethoxy)benzyl)phenethyl)-N′-(4-tert-butylphenyl)guanidine.mesylate]",31%,,
"CCCCc1ccc(NC(=N)N(CCCC)c2ccc(CCCC)cc2)cc1.Cl [Example 105, N,N′-Bis-(4-butylphenyl)-N-butylguanidine.HCl]",86%,,% Inhibition of ^3H-Glu Rel @ 0.1 μM [1]: 24%
"CCC(C)c1ccc(N(Cc2ccc(OCc3ccccc3)cc2)C(=N)N)cc1.Cl (stereo not shown) [Example 66, N-(4-sec-Butylphenyl)-N-(4-benzyloxybenzyl)guanidine.HCl]",,54%,
